US6465007B1, “Transgene expression in polarized cells” (Genzyme Corporation, priority 1998, dated 2002)

How the values were obtained:
mouse trachea = assay: Intranasal instillation of Ad2βgal-4, quantitative chemiluminescent βgal assay of trachea; type: in vivo
Method: Female BALB/c mice 9-12 weeks of age were purchased from Taconic (Germantown, N.Y.). In some groups, mice were instilled intranasally with 25 μl of a solution containing EGTA (pH 7.5), followed by 25 μl of 5% sucrose in PBS containing Adβgal-4 (2×10^8 IU). In other groups, mice were co-instilled with 25 μl of a solution prepared by mixing equal volumes of a 2× (4×10^8 IU/25 μl) Ad2βgal-4 solution in 10% sucrose with 2×EGTA prior to instillation.
To quantify βgal expression, mice were sacrificed with an intraperitoneal injection of Somlethal (King Pharmaceuticals, Bristol, Tenn.) as described by Kaplan et al (1998), and samples of trachea from individual mice were homogenized in lysis buffer. βgal activity was measured with a commercial kit (Galactolight, Tropix, Bedford, Mass.). Protein concentration in the homogenate was measured using DC reagent (Bio-Rad, Hercules, Calif.). Results are expressed as relative light units (RLU) per milligram of total protein.

polarized NHBE cells [1] = assay: In vitro transfection with GL-67:pCF1-SEAP, secreted alkaline phosphatase in apical supernatant; type: cell-based, human
Method: Prior to transfection, polarized NHBE cells on inserts were incubated in either Opti-MEM, Opti-MEM containing 0.1% EGTA, or in Ca^2+-free media (Gibco) in both sides of the insert for 30 min at 37° C. The cells were then washed 3 times with Opti-MEM, and incubated with unlabeled GL-67:pCF1-SEAP (40:53 μM) for 4 h at 37° C., after which they were washed 3 times with Opti-MEM. One ml of culture medium then was added to the outside of the insert (basal side) and 100 μl added to the inside of the insert (apical side). The supernatant from the apical side was collected on day 2 after transfection, heated at 65° C. for 1 h to denature endogenous alkaline phosphatases (Berger et al., Gene, 1988), and assayed in triplicate for secreted alkaline phosphatase (SEAP) activity using an alkaline phosphatase reagent (Sigma) and human placental alkaline phosphatase (Calbiochem, La Jolla, Calif.) as a standard.
To inhibit NHBE cell proliferation, aphidicolin (0.5 μg/ml; Sigma) was added to culture medium on the basal side of the polarized NHBE cells for 18 h at 37° C. The cells were then transfected as described above except that the concentrations of cationic lipid and pDNA were 80 and 107 μM, respectively. After transfection, aphidicolin was present in the culture medium until the cells were harvested. […] Retinoic acid enhanced the inhibitory effect of aphidicolin on cell proliferation (Chou, R. H. et al., Cell & Tissue Kinetics, 18:387-97, 1985).

polarized NHBE cells [2] = assay: Infection with Ad2βgal-4 after pretreatment, βgal expression; type: cell-based, human; conditions: cells treated with the calcium chelator
Method: Polarized NHBE cells were treated with Ca^2+-free medium (GIBCO) for 0.5 h and then rinsed twice with Opti-MEM (GIBCO). […] The cells were then infected by adding 200 μl of Opti-MEM containing Ad2βgal-4 or Ad2EGFP (100 moi) to the apical surface of the cultures, while 1 ml of OptiMEM was added to the outside of the insert. After 1 h, the viral suspension was removed, the cells washed twice with Opti-MEM and then 1 ml of the culture medium was added to the outside of the insert. Two days after infection, cells were assayed for βgal expression.

[3] = tested on: epithelial tight junctions of mouse trachea; assay: Lanthanum precipitation in trachea under TEM; type: in vivo; conditions: treated animals vs control animals
Method: Openings in tight junctions were visualized using a method described previously (Shaklai and Tavassoli, 1977; and Schneeberger and McCormack, 1984) with modifications. Briefly, mouse trachea was fixed with 2.5% glutaraldehyde, 1% lanthanum nitrate in 0.1 M cacodylate buffer, pH 7.4, for 4 to 6 h at […]. The trachea was then rinsed and washed 16 h with three changes of ice-cold 6.8% sucrose in 0.1 M cacodylate buffer ˜pH 7.4). The samples were postfixed in 1% OsO4 in 0.1 M cacodylate buffer containing 1% lanthanum nitrate pH 7.4 at 4° C. for 1 h, and dehydrated and then embedded in epoxy resin.

tight junctions = conditions: compared with EDTA; cited from earlier work
[4] = tested on: columnar epithelial cells in mouse trachea; assay: Light and electron microscopy of trachea; type: in vivo
Text: Tracheas stained with X-gal were removed from the fixing solution and processed for light and electron microscopy using standard procedures. Briefly, the tissues were washed with PBS, dried in alcohols, embedded in glycol methacrylate (GMA) and stained with nuclear fast red. The Ogal-stained cells were identified by light microscopy. For electron microscopy, the fixed tissues were washed three times in Sabatini's solution (1×PBS containing 6.8% sucrose), and postfixed with 1% osmium tetroxide in 0.1 M cacodylate buffer (pH7.4) for an hour, followed by three washes with Sabatini's solution. The samples were then dehydrated with a graded series of alcohols (30, 50, 75, 90 and 100 % for 15 min each), followed by treatments with propylene oxide (15 min), a 1:1 Epon-propylene oxide mix (1 h), and three incubations in pure Epon (3 h, 3 h and overnight). Polymerization was at 64° C. overnight. After embedding, ultrathin sections were cut (MT2 Sorvall ultramicrotome) and stained with lead citrate and uranyl acetate and examined with a JEOL 100CX transmission electron microscope (TEM).

polarized NHBE cells [5] = assay: Binding and internalization of cationic lipid:pDNA complexes (TOTO-1 label, trypan blue quenching)
Method: Cells were incubated with TOTO-1 or Rh-PE labeled complexes at 37° C. for the times noted in the figure legends. Following incubation, cells were washed 7 times with cold PBS and then fixed in 2% paraformadehyde for 20 min at 4° C. The membrane of the insert was removed and mounted using immuno-mount (Shandon, Pittsburgh, Pa.) containing 2 μg/ml DAPI (Molecular Probes). Bound and internalized complexes were observed under a fluorescence microscope (Olympus, AX-70). To observe only internalized complexes, cells were washed 2 times with cold PBS and then the fluorescence of surface bound complexes was quenched by a 10 min incubation with trypan blue (1 mg/ml; Diagnostic Systems, Inc., Gibbstown, N.J.) on ice. Cells were then washed an additional 5 times with cold PBS, fixed and mounted.
Polarized NHBE cells were cultured using a modified procedure based on the methods described by Yamaya et al., American Journal of Physiology, 265:L170-L177 (1993), Jiang et al., Science, 262:424-427 (1993) and Gray et al., American Journal of Respiratory Cell & Molecular Biology, 14:104-112 (1996). Briefly, first passage NHBE cells were plated at a density of 2.5×10^5 cells/cm^2 onto inserts (Millicell-PCF, 0.4 μm pore size, Millipore) coated with human placental collagen (Sigma). The culture medium was the same as that described above for growing NHBE cells as islands. Cultures were maintained under air-liquid interface conditions starting at day 3 following the initial seeding. Cells were considered ready for use when the trans-epithelial resistance was •1000 Ωcm^2.

Structure (SMILES): O=C(O)CN(CCOCCOCCN(CC(=O)O)CC(=O)O)CC(=O)O [EGTA, Ethylene glycol bis(B-aminoethyl ether) N,N,N′,N′-tetraacetic acid]
- time between treatment and AdV instillation giving maximal enhancement of β-gal expression (mouse trachea; 0.1M and 0.4M, FIG. 5B): 0.5 h
- tracheal gene expression relative to co-instilling AdV with 0.05M EGTA (mouse trachea; pre-treated with 0.05 and 0.1M, FIG. 5A): > 6 fold
- increase in SEAP expression (polarized NHBE cells [1]; 0.5 h pre-treatment, GL-67:pCF1-SEAP 40:53 μM 4 h, assayed after 48 h, FIG. 1): ~55 fold
- ability to transfect with cationic lipid:pDNA complexes (polarized NHBE cells [1]; treatment of polarized normal human bronchial epithelial cells): significant enhancement
- increase in expression from an AdV infection (polarized NHBE cells [2]): ~50 fold
- penetration of lanthanum precipitates through epithelial tight junctions [3]: penetrated through the epithelial tight junctions
- effectiveness at disrupting tight junctions (tight junctions): more effective than EDTA
- airway epithelial cell damage by EM ([4]; 0.4M): some damaged airway epithelial cells were observed
- cells transduced by AdV in cartilaginous airways ([4]; treated prior to AdV instillation): localized to columnar epithelial cells
- Effects of Tight Junction Disrupting Compounds on Cationic Amphiphile: DNA Complex Binding (polarized NHBE cells [5]; Table 1, grades Very Effective / Mildly Effective): Very Effective
- complex internalization (polarized NHBE cells [5]; fully polarized NHBE cells pretreated before incubation with complexes): increased dramatically
- toxicity (polarized NHBE cells [5]; pretreatment of fully polarized NHBE cells): minimal toxicity
- increasing the amount of internalized complex, compared with other reagents known to open tight junctions (polarized NHBE cells [5]; vs EDTA, poly-lysine, sodium caprate, decanoylcarnitine, sodium glycocholate): most effective
